Assay results reported in EP4748837A1, “AROMATIC AMIDE DERIVATIVE, AND PREPARATION METHOD THEREFOR AND USE THEREOF” (Zhejiang Hisun Pharmaceutical Co., Ltd., priority 2023, dated 2025).
pIC50: −log10 of the molar value.

How the values were obtained:
[1] = Pharmacokinetic testing in mice after intragastric administration; format: in vivo; settings: male, mouse, ICR mice, oral administration 10 mg/kg, plasma
Method: ICR mice were taken as test animals, and intragastrically administered with a control compound AMG650 and compounds 47 and 53 of the present invention, and then drug concentrations in plasma at different moments were determined by an LC/MS/MS method, so as to study pharmacokinetic characteristics of the compounds of the present invention in the mice.
Control compound AMG650, and Compounds 47 and 53.
ICR mice, male, 20-22 g, purchased from Vital River Laboratory Animal Technology Co., Ltd.
A proper amount of to-be-tested compound was weighed, proper amounts of DMA, 30% HS-15 and Saline were added in sequence, and the mixture was well mixed by ultrasonic vortex to prepare 1 mg/mL drug preparations respectively, wherein […]: 30% HS-15: Saline=5: 5: 90 (v: v: v).
ICR mice in each to-be-tested compound injection group (9 mice in each group) were fasted overnight and then intragastrically administered with the compound (PO, an administration dosage of the compound was 10 mg/kg and an administration volume of the compound was 10 mL/kg), and were fed 4 hours after administration.
0.25 hours, 0.5 hours, 1 hour, 2 hours, 4 hours, 6 hours, 8 hours and 24 hours before and after administration, about […] of blood was collected through an orbit, and a complete blood sample was placed in an EDTA-K2-containing anticoagulation tube. The collected blood samples were placed on ice, and plasma was centrifugally separated (centrifugation conditions: 1500 g, 10 minutes). The collected plasma was stored at -40°C - -20°C before analysis.
A content of the to-be-tested compound in the plasma of the mice after intragastric administration was determined by LC-MS/MS.

HT-29 cells = assay: Inhibition of HT-29 cell proliferation (CellTiter-Glo cell viability); format: cell-based; settings: Homo sapiens; HT-29 cells (TP53 R273H mutation), 120 hours culture with compound; read-out: IC50
Summary of the method: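 HT-29 cells (TP53 R273H) in McCOY's 5A with 10% FBS, seeded 1000 cells/well overnight, then exposed to compound at 1000 nM–0.015 nM final for 120 hours at 37°C. Viability by CellTiter-Glo luminescence versus 0.3% DMSO control; IC50 by nonlinear regression of log concentration–inhibition.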

[2] = system: OVCAR-3 human ovarian adenocarcinoma tumor mass; assay: Pharmacodynamic testing in subcutaneous OVCAR-3 xenograft model; format: in vivo, BALB/c nude mice; settings: 35 days after administration, 8 mg/kg po QD, BALB/c nude mice
Method: Anti-tumor effects and Safeties of the Compounds 47 and 53 of the present invention in a BALB/c nude mouse animal model subjected to subcutaneous xenotransplantation of OVCAR-3 human ovarian adenocarcinoma tumor mass were evaluated.
BALB/c; nude mice, female, 6-7 weeks old, purchased from Jiangsu Gempharmatech Biotechnology Co., Ltd.
Mice in a solvent control group were given DMA: CrEL: 5%GS=10: 10: 80 (v: v: v). AMG650: a proper amount of AMG-650 was weigned, proper amounts of DMA, CrEL and 5% GS were added in sequence, and the mixture was well mixed by ultrasonic vortex to prepare 0.8 mg/mL drug preparations respectively, wherein DMA: CrEL : 5% GS=10: 10: 80 (v: v: v).
Compound 47: a proper amount of Compound 47 was added with proper amounts of DMA, CrEL and 5% GS in sequence, and evenly mixed by ultrasonic vortex to prepare 0.8 mg/mL drug preparations respectively, wherein DMA, CrEL and 5% GS=10: 10: 80 (v: v: v).
Compound 53: a proper amount of Compound 53 was weighed, proper amounts of DMA, CrEL and 5% GS were added in sequence, and the mixture was well mixed by ultrasonic vortex to prepare 0.8 mg/mL drug preparations respectively, wherein DMA: CrEL : 5% GS=10: 10: 80 (v: v: v).
An appropriate OVCAR-3 tumor-bearing animal was selected, and a 1 mm×1 mm×1 mm OVCAR-3 tumor mass was acquired aseptically and placed into normal saline for later use, which was used for subcutaneous tumor inoculation in a right side of back of the BALB/c nude mice.
About 1 mm×1 mm×1 mm OVCAR-3 tumor mass was subcutaneously inoculated in the right side of back of the female BALB/c nude mice. When an average tumor volume reached about 100-250 mm^3, the mice were randomly grouped based on tumor size, with 6 mice in each group.
Animals in each group were given the test compound once per day according to an animal weight at a fixed time every day by oral administration (po), the animals started to be administered with the test compound for the first time on the day of grouping for 35 consecutive days, and the animal weight was recorded every day.
The 1st group (G1) was a solvent control group; and
The 2nd-4th groups […] were orally administered with AMG-650, Compound 47 and Compound 53 at an administration dosage of 8 mg/kg once per day (QD).

OVCAR-3 cells = assay: Inhibition of OVCAR-3 cell proliferation (CellTiter-Glo cell viability); format: cell-based; settings: Homo sapiens; OVCAR-3 cells (TP53 R248Q mutation), 72 hours culture with compound; read-out: IC50
Summary of the method: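 OVCAR-3 cells (TP53 R248Q) in RPMI 1640 with 10% FBS were seeded at 1000 cells/well, grown overnight, then exposed to compound (final 1000 nM–0.015 nM) for 72 h at 37°C, 5% CO2. Viability was read by CellTiter-Glo luminescence. IC50 came from nonlinear regression of inhibition relative to 0.3% DMSO control.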

recombinant human KIF18A = biological target: T1, recombinant human KIF18A (Homo sapiens, UniProt Q8NI77); assay: Inhibition of KIF18A enzyme activity (ADP-Glo assay); format: biochemical; settings: recombinant human KIF18A 100 nM, ATP 60 µM, tubulin, paclitaxel; read-out: IC50
T1 construct: purchased GenScript
Method: Inhibition degrees of the compounds of the present invention on recombinant human KIF18A enzyme activity in vitro were determined by the following method. An ADP-Glo™ Kinase Assay kit (article number V9102) from Promega Company was used in this method. Detailed experimental operation referred to the instruction of the kit.
An experimental process was briefly described as follows: a test compound was dissolved in DMSO first to prepare a stock solution, then the stock solution was gradiently diluted with a reaction buffer A ([…], 0.01% Pluronic F-68), and a final concentration of the test compound in the reaction system was in a range of 10000 nM-0.15 nM; and a KIF18A protein and ATP working solution was prepared by using a reaction buffer B (15 mM Tris, pH 7.5, 10 mM MgCl2, 0.01% Pluronic F-68, 37.5 µg/ml tubulin, 1.25 µM paclitaxel). The reaction was carried out in a 384-well microplate. The test compound and the recombinant human KIF18A protein (final concentration of 100 nM, entrusted to GenScript for expression) were added into the wells and incubated at room temperature for 20 minutes, and subsequently, an ATP solution (component V915A from the ADP-Glo™ Kinase Assay kit, final concentration of 60 µM) was added to the reaction solution and the system was incubated at room temperature for 20 minutes. Subsequently, 5 µL of ADP-Glo Reagent was added to the reaction systemand the system was incubated at room temperature for 50 minutes. Then, 10 µL of Kinase Detection Reagent was added to the reaction system and the system was incubated at room temperature for 30 minutes. After the incubation was ended, a chemiluminiscence intensity value of each well was determined by a microplate reader in a Luminescence mode.

T1 sequence (Q8NI77 whole entry): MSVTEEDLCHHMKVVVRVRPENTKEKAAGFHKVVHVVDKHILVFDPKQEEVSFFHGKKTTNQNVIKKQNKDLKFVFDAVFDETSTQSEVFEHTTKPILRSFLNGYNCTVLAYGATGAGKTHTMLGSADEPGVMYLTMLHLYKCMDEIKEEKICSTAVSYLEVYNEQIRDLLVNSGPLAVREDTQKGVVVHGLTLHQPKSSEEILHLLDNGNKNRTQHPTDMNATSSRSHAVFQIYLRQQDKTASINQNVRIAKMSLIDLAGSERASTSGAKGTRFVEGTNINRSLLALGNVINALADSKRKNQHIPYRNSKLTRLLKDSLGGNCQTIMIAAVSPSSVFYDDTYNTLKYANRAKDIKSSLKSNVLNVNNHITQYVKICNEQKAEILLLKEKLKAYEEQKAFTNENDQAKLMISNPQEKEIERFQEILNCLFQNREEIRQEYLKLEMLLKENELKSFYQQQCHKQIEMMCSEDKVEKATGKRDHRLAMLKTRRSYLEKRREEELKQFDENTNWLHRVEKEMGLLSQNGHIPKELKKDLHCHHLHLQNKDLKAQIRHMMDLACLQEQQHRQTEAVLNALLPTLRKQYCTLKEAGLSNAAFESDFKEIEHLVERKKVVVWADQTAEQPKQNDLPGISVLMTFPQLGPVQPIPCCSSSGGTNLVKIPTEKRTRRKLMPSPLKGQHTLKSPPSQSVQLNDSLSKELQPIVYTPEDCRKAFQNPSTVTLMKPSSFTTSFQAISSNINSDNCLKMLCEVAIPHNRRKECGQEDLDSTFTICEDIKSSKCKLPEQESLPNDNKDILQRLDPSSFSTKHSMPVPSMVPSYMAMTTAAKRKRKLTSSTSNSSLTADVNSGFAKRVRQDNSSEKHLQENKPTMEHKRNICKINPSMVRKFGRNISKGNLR
T1 sequence (P68363 whole entry partner): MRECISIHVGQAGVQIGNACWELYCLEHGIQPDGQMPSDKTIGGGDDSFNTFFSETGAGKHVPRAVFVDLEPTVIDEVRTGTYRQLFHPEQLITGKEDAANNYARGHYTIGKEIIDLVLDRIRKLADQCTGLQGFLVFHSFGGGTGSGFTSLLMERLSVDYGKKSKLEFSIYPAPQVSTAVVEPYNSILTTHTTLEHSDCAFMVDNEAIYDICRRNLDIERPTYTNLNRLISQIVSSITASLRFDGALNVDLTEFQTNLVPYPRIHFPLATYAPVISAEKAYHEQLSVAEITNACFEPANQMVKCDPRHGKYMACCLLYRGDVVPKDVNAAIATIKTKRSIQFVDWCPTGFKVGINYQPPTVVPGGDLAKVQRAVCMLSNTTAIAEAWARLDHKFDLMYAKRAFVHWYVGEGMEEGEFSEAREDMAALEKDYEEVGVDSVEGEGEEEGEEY
T1 sequence (Q9BVA1 whole entry partner): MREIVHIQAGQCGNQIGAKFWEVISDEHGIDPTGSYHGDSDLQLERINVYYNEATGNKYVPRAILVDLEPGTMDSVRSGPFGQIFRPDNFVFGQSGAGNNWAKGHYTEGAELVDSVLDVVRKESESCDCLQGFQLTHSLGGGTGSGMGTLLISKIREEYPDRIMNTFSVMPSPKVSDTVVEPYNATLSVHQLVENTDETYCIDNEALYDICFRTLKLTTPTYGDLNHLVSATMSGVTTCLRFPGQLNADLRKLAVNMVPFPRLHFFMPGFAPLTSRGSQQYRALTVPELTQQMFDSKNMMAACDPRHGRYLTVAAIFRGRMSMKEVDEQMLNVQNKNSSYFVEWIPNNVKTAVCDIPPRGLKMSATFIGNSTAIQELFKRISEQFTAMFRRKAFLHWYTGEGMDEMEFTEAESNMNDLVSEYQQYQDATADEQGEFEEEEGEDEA

`Cc1cc(NC(=O)c2ccc(NS(=O)(=O)CCO)cc2N2CCC3(CC2)CC3)nc(N2CCC(F)(F)CC2)n1` [AMG 650, reference compound] showed an AUC(0-inf) ([1]; read-out: Area under the curve AUC0-∞) of 52.5 µg·h/mL, a half-life ([1]; read-out: Half-life period T1/2 (converted)) of 9.64 h and a Cmax ([1]; read-out: Plasma concentration Cmax) of 3.05 µg/mL. For the same compound, the pIC50 (HT-29 cells) was 7.21, the TGI% [2] was 68.1% and the “Tumor volume (x±S)” value ([2]; mean value ± standard error, in mm³ (unit assumed)) was 313±76. For the same compound, the pIC50 (OVCAR-3 cells) was 7.19.
Work on `O=C(Nc1ccc(-c2ccnnc2)c(N2CCC(F)(F)CC2)c1)c1ccc(NS(=O)(=O)C2CC2)cc1N1CCC2(CC1)CC2` [Example 16, 4-(cyclopropanesulfonamido)-N-(3-(4,4-difluoropiperidin-1-yl)-4-(pyridazin-4-yl)phenyl)-2-(6-azaspiro[2.5]octan-6-yl)b enzamide] yielded a pIC50 (HT-29 cells) of 8.34, a pIC50 (OVCAR-3 cells) of 8.21 and a pIC50 (recombinant human KIF18A) of 6.83.
In the case of `O=C(Nc1ccc(-c2ncccn2)c(N2CCC(F)(F)CC2)c1)c1ccc(NS(=O)(=O)C2CC2)cc1N1CCC2(CC1)CC2` [Example 17, 4-(cyclopropanesulfonamido)-N-(3-(4,4-difluoropiperidin-1-yl)-4-(pyrimidin-2-yl)phenyl)-2-(6-azaspiro[2.5]octan-6-yl)b enzamide], the pIC50 (HT-29 cells) was 8.48, the pIC50 (OVCAR-3 cells) was 8.49 and the pIC50 (recombinant human KIF18A) was 6.92.
